Patent publication US20070149456A1, “Epithelial sodium channel inhibiting agents and uses therefor” (University of Pittsburgh, priority 2005, published 2007)
Entries after “also recorded” stand apart in the source; their conditions may differ.

Experiments:
αR205A,Δ206-231βγ = assay: Two-electrode voltage clamp in oocytes expressing channels lacking furin cleavage and the tract αAsp-206-Arg-231; format: cell-based, mouse; conditions: 1 μM α-26
Text: Oocyte Expression—cRNAs for α, β, γ mouse ENaC (wild-type and mutant) subunits and mouse prostasin were synthesized with T3 or T7 m-Message mMachineTM (Ambion, Austin, Tex.). Subunits carrying furin cleavage consensus site mutations and the corresponding wild-type subunits have amino-terminal HA and carboxyl-terminal V5 tags (Hughey, R. P., Bruns, J. B., Kinlough, C. L., Harkleroad, K. L., Tong, Q., Carattino, M. D., Johnson, J. P., Stockand, J. D., and Kleyman, T. R. (2004) J. Biol. Chem. 279, 18111-18114 18). Stage V-VI Xenopus laevis oocytes were pretreated with 1.5 mg/ml of type IV collagenase and injected with 0.5-2 ng of cRNA/subunit. Injected oocytes were maintained as previously reported (Carattino, M. D., Hill, W. G., and Kleyman, T. R. (2003), Arachidonic Acid Regulates Surface Expression of Epithelial Sodium Channels, J Biol. Chem. 278, 36202-36213 29).
Two-electrode Voltage Clamp—Two-electrode voltage clamp (TEV) was performed as previously described (Carattino, M. D., Hill, W. G., and Kleyman, T. R. (2003) J Biol. Chem. 278, 36202-36213 29). The extracellular solution (TEV solution) was (in mM): 110 NaCl, 2 KCl, 1.54 CaCl2, 10 HEPES, pH 7.4, or otherwise as indicated. […] ENaC-mediated whole cell Na^+ currents, at −60 mV,were defined as the amiloride-sensitive component of the current. […]

[1] = biological target: T1, endogenous ENaC in HAE cells (Homo sapiens, UniProt P37088+P51168+P51170); conditions: human airway cells; stated jointly with mouse CCD; Carattino 2006; read-out: IC50, inhibition of ENaC activity; cited from earlier work
T1 construct: endogenous in cells; host or cells: primary human airway (bronchial) epithelial cells from transplant or donor lungs
T1 sequence (P37088 1-178): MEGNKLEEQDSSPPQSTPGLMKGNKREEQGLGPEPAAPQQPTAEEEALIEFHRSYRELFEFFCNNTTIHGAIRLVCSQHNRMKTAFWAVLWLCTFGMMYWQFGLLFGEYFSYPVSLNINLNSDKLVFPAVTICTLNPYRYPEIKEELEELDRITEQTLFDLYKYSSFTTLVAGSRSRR
T1 sequence (P37088 205-669): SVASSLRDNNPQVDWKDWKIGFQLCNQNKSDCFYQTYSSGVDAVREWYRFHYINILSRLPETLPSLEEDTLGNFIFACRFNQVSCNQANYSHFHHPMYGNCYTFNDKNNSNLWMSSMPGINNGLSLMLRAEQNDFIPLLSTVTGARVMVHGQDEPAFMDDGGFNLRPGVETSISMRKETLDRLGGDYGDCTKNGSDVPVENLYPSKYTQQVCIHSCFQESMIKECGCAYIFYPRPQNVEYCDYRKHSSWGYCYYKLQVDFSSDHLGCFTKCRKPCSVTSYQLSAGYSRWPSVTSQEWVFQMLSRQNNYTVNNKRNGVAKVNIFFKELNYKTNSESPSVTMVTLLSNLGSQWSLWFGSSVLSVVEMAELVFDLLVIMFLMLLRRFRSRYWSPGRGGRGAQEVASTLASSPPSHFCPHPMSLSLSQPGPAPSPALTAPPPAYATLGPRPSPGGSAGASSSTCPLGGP
T1 sequence (P51168 whole entry): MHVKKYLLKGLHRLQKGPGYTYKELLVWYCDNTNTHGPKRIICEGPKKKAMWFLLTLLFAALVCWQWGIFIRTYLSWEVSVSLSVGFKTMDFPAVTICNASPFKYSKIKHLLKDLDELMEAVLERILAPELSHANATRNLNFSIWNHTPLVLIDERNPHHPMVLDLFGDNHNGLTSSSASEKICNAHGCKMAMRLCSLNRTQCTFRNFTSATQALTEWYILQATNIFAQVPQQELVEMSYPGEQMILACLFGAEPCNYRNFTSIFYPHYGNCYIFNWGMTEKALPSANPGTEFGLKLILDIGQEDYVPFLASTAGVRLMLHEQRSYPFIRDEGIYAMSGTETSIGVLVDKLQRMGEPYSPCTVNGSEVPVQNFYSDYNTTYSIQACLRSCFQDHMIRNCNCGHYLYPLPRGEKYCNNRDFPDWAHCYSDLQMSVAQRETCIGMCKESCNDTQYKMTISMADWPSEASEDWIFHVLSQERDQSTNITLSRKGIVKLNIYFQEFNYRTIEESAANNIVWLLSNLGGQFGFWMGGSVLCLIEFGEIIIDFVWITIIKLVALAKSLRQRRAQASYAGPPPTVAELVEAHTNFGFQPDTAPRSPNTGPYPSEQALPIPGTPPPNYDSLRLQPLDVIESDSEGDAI
T1 sequence (P51170 1-138): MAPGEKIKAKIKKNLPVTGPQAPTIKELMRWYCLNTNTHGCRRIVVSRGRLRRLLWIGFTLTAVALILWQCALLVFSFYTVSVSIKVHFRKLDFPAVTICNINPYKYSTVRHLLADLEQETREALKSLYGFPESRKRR
T1 sequence (P51170 182-649): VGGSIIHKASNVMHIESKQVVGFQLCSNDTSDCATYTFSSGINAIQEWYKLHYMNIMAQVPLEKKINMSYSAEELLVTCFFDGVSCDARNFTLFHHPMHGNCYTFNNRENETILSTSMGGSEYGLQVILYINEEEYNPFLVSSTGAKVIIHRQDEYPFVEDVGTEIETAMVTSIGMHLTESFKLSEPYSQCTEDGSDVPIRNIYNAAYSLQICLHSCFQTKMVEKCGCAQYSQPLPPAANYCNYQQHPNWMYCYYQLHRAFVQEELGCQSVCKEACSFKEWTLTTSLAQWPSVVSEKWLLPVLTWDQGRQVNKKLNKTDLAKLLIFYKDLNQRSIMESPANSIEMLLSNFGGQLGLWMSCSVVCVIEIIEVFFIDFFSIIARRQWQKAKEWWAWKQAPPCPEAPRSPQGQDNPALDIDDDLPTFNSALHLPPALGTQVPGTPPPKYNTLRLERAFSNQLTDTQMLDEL

Ac-DLRGALPHPLQRLRTPPPPNPARSAR-NH2 [α-26]
block of channels (αR205A,Δ206-231βγ): does not block; also recorded: not blocked
IC50 [1]: 50 to 100 µM
